How the values were obtained:
[1] = Evaporation cell test: weight loss of volatile compound through coated or uncoated paper; assay type: physicochemical; details: 23° C., 50% humidity; for Weight loss of volatile compound through uncoated paper V2: uncoated paper V2, no coating
Experimental: The test was carried out according to the method described by Diehl, H. Pfeiffer, A.-M, Seyffer H., (2014), New testing method for functional barriers, International Paperworld IPW 8-11. All tests were carried out in a climate chamber at 23° C. and 50% humidity.
For this, circular specimens were cut from the paper coated with the respective coating. The specimen was placed in the holder of the evaporation cell. A defined amount of the respective volatile compound was filled into the chamber of the evaporation cell, and the chamber was closed by the holder and immediately weighed thereafter to an accuracy of 0.1 mg. The closed evaporation cell was reweighed after 1 h, 4 h, 1 d and 2 d.

[2] = vapor pressure at 25° C.; cited from earlier work
[3] = water / 1-octanol; cited from earlier work
[4] = paper 1, Polymer dispersion 1, thickness 10 g/m^2, coverage 50%
[5] = paper 1, Polymer dispersion 2, thickness 10 g/m^2, coverage 50%
[6] = paper 2, Polymer dispersion 1, thickness 15 g/m^2, coverage 30%
[7] = paper 2, Polymer dispersion 2, thickness 5 g/m^2, coverage 70%
[8] = paper V1, Polymer dispersion 1, thickness 10 g/m^2, coverage 100%
[9] = paper V1, Polymer dispersion 2, thickness 10 g/m^2, coverage 100%

Weight loss of volatile compound through respective coating of paper 1 [1, 4]	Weight loss of volatile compound through respective coating of paper 1 [1, 5]	Weight loss of volatile compound through respective coating of paper 2 [1, 6]	Weight loss of volatile compound through respective coating of paper 2 [1, 7]	Weight loss of volatile compound through respective coating of paper V1 [1, 8]	Weight loss of volatile compound through respective coating of paper V1 [1, 9]	Weight loss of volatile compound through uncoated paper V2 [1]	SMILES	VP(25° C.) [2] [mbar]	Log Pow [3]
2 g/(m^2d)	2 g/(m^2d)	5 g/(m^2d)	4 g/(m^2d)	1 g/(m^2d)	1 g/(m^2d)	950 g/(m^2d)	CC(C)=CCCC(C)CC=O (stereo not drawn) [Citronellal]	0.5	3.8
1320 g/(m^2d)	1300 g/(m^2d)	3300 g/(m^2d)	653 g/(m^2d)	660 g/(m^2d)	650 g/(m^2d)	2450 g/(m^2d)	CCOC(C)=O [Ethyl acetate]	7	0.9
291 g/(m^2d)	702 g/(m^2d)	725 g/(m^2d)	353 g/(m^2d)	145 g/(m^2d)	350 g/(m^2d)	3750 g/(m^2d)	CCCCCC=O [Hexanal]	15	1.9
120 g/(m^2d)	204 g/(m^2d)	295 g/(m^2d)	103 g/(m^2d)	60 g/(m^2d)	100 g/(m^2d)	2100 g/(m^2d)	CC(=O)OCCC(C)C [Isoamyl acetate]	5	2.5
300 g/(m^2d)	320 g/(m^2d)	749 g/(m^2d)	163 g/(m^2d)	150 g/(m^2d)	160 g/(m^2d)	3500 g/(m^2d)	CC(=O)OCC(C)C [Isobutyl acetate]	20	1.8

SMILES	Weight loss of volatile compound through respective coating of paper 1 [1, 4]	Weight loss of volatile compound through respective coating of paper 1 [1, 5]	Weight loss of volatile compound through respective coating of paper 2 [1, 6]	Weight loss of volatile compound through respective coating of paper 2 [1, 7]	Weight loss of volatile compound through respective coating of paper V1 [1, 8]	Weight loss of volatile compound through respective coating of paper V1 [1, 9]	Weight loss of volatile compound through uncoated paper V2 [1]	VP(25° C.) [2] [mbar]	Log Pow [3]
C=C(C)[C@H]1CC=C(C)CC1 [Limonene]	2 g/(m^2d)	100 g/(m^2d)	5 g/(m^2d)	53 g/(m^2d)	1 g/(m^2d)	50 g/(m^2d)	1750 g/(m^2d)	2	4.6
CCCCCCC [n-Heptane]	2 g/(m^2d)	1200 g/(m^2d)	5 g/(m^2d)	603 g/(m^2d)	1 g/(m^2d)	600 g/(m^2d)	4500 g/(m^2d)	61	4.8
CCCCCC [n-Hexane]	4 g/(m^2d)	1900 g/(m^2d)	10 g/(m^2d)	953 g/(m^2d)	2 g/(m^2d)	950 g/(m^2d)	> 4000 g/(m^2d)	201	3.9
